Patent US20240352145A1, “EFFICACY OF ANTI-TROP-2-SN-38 ANTIBODY DRUG CONJUGATES FOR THERAPY OF TUMORS RELAPSED/REFRACTORY TO CHECKPOINT INHIBITORS” (Immunomedics, Inc., priority 2016, published 2024)

How the values were obtained:
p21^Waf1/Cip1 and p53 [1] = experiment: Signaling events (p21Waf1/Cip1, p53) in BxPC-3; type: cell-based, human
Description: (§3) Our initial studies examined the expression of 2 proteins involved in early signaling events (p21^Waf1/Cip1 and p53) and 1 late apoptotic event [cleavage of poly-ADP-ribose polymerase (PARP)] in vitro (not shown).

p21^Waf1/Cip1 and p53 [2] = experiment: Signaling events (p21Waf1/Cip1, p53) in Calu-3; type: cell-based, human
Description: as §3

Capan-1 [3] = experiment: Cytotoxicity (MTS), Example 6, Capan-1; type: cell-based, human; details: Capan-1, 96 h
Description: (§1) One day prior to adding the ADCs, cells were harvested from tissue culture and plated into 96-well plates. […] Plates were incubated at 37° C. for 96 h. […] Growth inhibition was measured as a percent of growth relative to untreated cells using Microsoft Excel and Prism software (non-linear regression to generate sigmoidal dose response curves which yield IC50-values.

BxPC-3 [4] = experiment: Cytotoxicity (MTS), Example 6, BxPC-3; type: cell-based, human; details: BxPC-3, 96 h
Description: as §1

NCI-N87 = experiment: Cytotoxicity (MTS), Example 6, NCI-N87; type: cell-based, human; details: NCI-N87, 96 h
Description: as §1

BxPC-3 [5] = experiment: Cytotoxicity (MTS), Example 7, BxPC-3; type: cell-based, human; details: BxPC-3, 96 h
Description: as §1, with “ADC,” for “ADCs,”, “plates at 2000 cells per well.” for “plates.”, “IC50-values).” for “IC50-values.”

MDA-MB-468 [6] = experiment: Cytotoxicity (MTS), Example 7, MDA-MB-468; type: cell-based, human; details: MDA-MB-468, 96 h
Description: as §1, with “ADC,” for “ADCs,”, “plates at 2000 cells per well.” for “plates.”, “IC50-values).” for “IC50-values.”

SK-BR-3 = experiment: SN-38 sensitivity (MTS), SK-BR-3; type: cell-based, human; details: SK-BR-3 (HER2+), 96 h
Description: (§2) In vitro cytotoxicity testing—Sensitivity to SN-38 was determined using the 3-(4,5-dimethylthiazol-2-yl)-5-(3-carboxymethoxyphenyl)-2-(4-sulfophenyl)-2H-tetrazolium dye reduction assay (MTS dye reduction assay; Promega, Madison, WI). Briefly, cells were plated into 96-well clear, flat-bottomed plates as described above. SN-38 dissolved in DMSO was diluted with media to a final concentration of 0.004 to 250 nM. […] Growth inhibition was measured as a percent of growth relative to untreated cells. Dose-response curves were generated from the mean of triplicate determinations, and IC50-values were calculated using Prism GraphPad Software.

MDA-MB-468 [7] = experiment: SN-38 sensitivity (MTS), MDA-MB-468; type: cell-based, human; details: MDA-MB-468 (TNBC), 96 h
Description: as §2

HCC38 = experiment: SN-38 sensitivity (MTS), HCC38; type: cell-based, human; details: HCC38 (TNBC), 96 h
Description: as §2

MCF-7 = experiment: SN-38 sensitivity (MTS), MCF-7; type: cell-based, human; details: MCF-7 (ER+), 96 h
Description: as §2

HCC1806 = experiment: SN-38 sensitivity (MTS), HCC1806; type: cell-based, human; details: HCC1806 (TNBC), 96 h
Description: as §2

MDA-MB-231 = experiment: SN-38 sensitivity (MTS), MDA-MB-231; type: cell-based, human; details: MDA-MB-231 (TNBC), 96 h
Description: as §2

p21^WAF1/Cip1 = experiment: Immunoblotting, apoptotic pathway, MDA-MB-468; type: cell-based, human; details: MDA-MB-468, by 48 h
Description: Immunoblotting—Cells (2×10^6) were plated in 6-well plates overnight. […] Parental hRS7 was used as a control for the ADC.

PARP = experiment: Immunoblotting, apoptosis signaling, NCI-N87 and BxPC-3; type: cell-based, human; details: evident at 24 h, increased at 48 h
Description: Immunoblotting—Cells (2×10^6) were plated in 6-well plates overnight. […] Parental hRS7 was used as a control for the ADC. Cells were lysed in buffer containing 10 mM Tris, pH 7.4, 150 mM NaCl, protease inhibitors and phosphatase inhibitors (2 mM […], 10 mM NaF). A total of 20 μg protein was resolved in a 4-20% SDS polyacrylamide gel, transferred onto a nitrocellulose membrane and blocked by 5% non-fat milk in 1×TBS-T (Tris-buffered saline, 0.1% Tween-20) for 1 h at room temperature. Membranes were probed overnight at 4° C. with primary antibodies followed by 1-h incubation with antirabbit secondary antibody (1:2500) at room temperature. Signal detection was done using a chemiluminescence kit (Supersignal West Dura, Thermo Scientific; Rockford, IL) with the membranes visualized on a Kodak Image Station […]. Primary antibodies p21Waf1/Cip1 (Cat. No. 2947), Caspase-3 (Cat. No. 9665), Caspase-7 (Cat. No. 9492), Caspase-9 (Cat. No. 9502), PARP (Cat. No. 9542), 3-actin (Cat. No. 4967), pJNK1/2 (Cat. No. 4668), JNK (Cat. No. 9258), and goat anti-rabbit-HRP secondary antibody (Cat. No. 7074) were obtained from Cell Signal Technology (Danvers, MA).

PC-3 = experiment: In vitro cytotoxicity, PC-3
Description: (§4) Cell lines, antibodies, and chemotherapeutics—All human cancer cell lines used in this study were purchased from the American Type Culture Collection.

Calu-3 = experiment: In vitro cytotoxicity, Calu-3
Description: as §4

BxPC-3 [8] = experiment: In vitro cytotoxicity, BxPC-3
Description: as §4

Capan-1 [9] = experiment: In vitro cytotoxicity, Capan-1
Description: as §4

COLO 205 = experiment: In vitro cytotoxicity, COLO 205
Description: as §4

SK-MES-1 = experiment: In vitro cytotoxicity, SK-MES-1
Description: as §4

CCc1c2c(nc3ccc(O)cc13)-c1cc3c(c(=O)n1C2)COC(=O)[C@]3(O)CC [SN-38, 7-ethyl-10-hydroxycamptothecin]
exposure time at which p53 upregulation is evident (p21^Waf1/Cip1 and p53 [1]): 48 h
increase in p21Waf1/Cip1 expression (p21^Waf1/Cip1 and p53 [1]): 20 fold
exposure time at which p53 upregulation is evident (p21^Waf1/Cip1 and p53 [2]): 48 h
IC50 (Capan-1 [3]): 1 nM
IC50 (BxPC-3 [4]): 1 nM
IC50 (NCI-N87): 4.3 nM
IC50 (BxPC-3 [5]): 1.6 nM
IC50 (MDA-MB-468 [6]): 0.8 nM
IC50 (SK-BR-3): 2 nM
IC50 (MDA-MB-468 [7]): 2 nM
IC50 (HCC38): 2 nM
IC50 (MCF-7): 33 nM
IC50 (HCC1806): 1 nM
IC50 (MDA-MB-231): 6 nM
decrease of p21WAF1/Cip1 (p21^WAF1/Cip1): 31%
PARP cleavage (PARP): mediated PARP cleavage
IC50 (PC-3): 1.86 nM
IC50 (Calu-3): 7.19 nM
IC50 (BxPC-3 [8]): 1.44 nM
IC50 (Capan-1 [9]): 3.5 nM
IC50 (COLO 205): 1.02 nM
IC50 (SK-MES-1): 8.61 nM
